Assay results published in patent publication US20240374691A1, “GLP-1R AGONISTS FOR USE IN A TREATMENT OF NEUROLOGIAL IMPAIRMENT ASSOCIATED WITH VIRAL INFECTION” (Neuraly, Inc., priority 2021, published 2024).
Like-named read-outs stand apart in the source and are kept apart here.

Experiments:
[1] = in vivo; cited from earlier work
primary microglia = experiment: Pro-inflammatory cytokine production by primary microglia in vitro (ELISA); assay type: cell-based; details: NLY01 vs PBS
Experimental: Production of pro-inflammatory cytokines is a marker for microglial activation. Chronic microglial activation is pathogenic. […] Cytokine levels were determined using ELISA. Bars indicate mean±s.e.m. (n=3).

activated microglia = experiment: Microglial activation in vivo after intrastriatal α-synuclein PFF injection; parameters: species or system C57BL6 mice; details: 3 mg/kg s.c. twice a week for 5 months, PFF-injected mice, FIGS. 2A-2B
Description: Mice were perfused and brain tissues collected to allow analysis of activated microglia and cytokine levels following treatment.

[2] = system: Tg models of Alzheimer's Disease; experiment: Tg models of Alzheimer's Disease (AD); assay type: in vivo
[3] = in vivo
[4] = in vivo; remark: listed apart in the source

## Albiglutide: dipeptidyl peptidase-4-resistant glucagon-like peptide-1 dimer fused to human albumin
[1]
  half-life: four to seven

## NLY01: long-acting PEGylated form of exenatide; PEG 50,000 Da site-specifically conjugated to exenatide peptide
Primary microglia; absence of activation
  cytokine production by microglia: not significantly affected
Primary microglia; activated microglia, FIGS. 1A-1D
  pro-inflammatory cytokine levels (C1q, IL1α, TNF-α, IL1β): substantially reduced
Activated microglia
  Iba-1+ activated microglia in the brain (Iba-1 intensity, microglia density): reduced
[2]
  amyloid aggregation and tau formation: reduced
  memory impairment: ameliorated
  microglia activation and population of reactive astrocytes in the AD brain: significantly inhibited
[3]
  half-life: 88 h
[4]
  blood-brain barrier traversal: traverses the blood-brain barrier
